Laboratory results reported in patent US11332477B2, “Nitrogen containing heterocycle substituted benzoxazine oxazolidinone compound and preparation method and use thereof” (INSTITUTE OF MATERIA MEDICA, CHINESE ACADEMY OF MEDICAL …, priority 2017, dated 2022).
Converted amounts (≈) assume the structure as drawn.

Experiments:
[1] = system: clinically isolated 12525 strains (rifampicin- and isoniazid-resistant strains); test: microbe, parasite or virus in culture; format: cell-based; settings: Mycobacterium tuberculosis, read-out: MIC 12525
[2] = system: Linezolid-resistant strain; test: microbe, parasite or virus in culture; format: cell-based; settings: Mycobacterium tuberculosis, read-out: MIC Linezolid-resistant strain

SMILES	MIC [1]	MIC [2]
CC(=O)NC[C@@H]1OC(=O)N2c3cc(F)c(N4CC[S+]([O-])CC4)cc3OC[C@@H]12 [Compound 23, N-(((3S,3aS)-8-Fluoro-1-oxo-7-(1-oxidothiomorpholino)-3a,4-dihydro-1H,3H-benzo[b]oxazolo[3,4-d][1,4]oxazin-3-yl)methyl)acetamide]	0.053 µg/mL (≈ 0.133 µM)	–
CC(=O)NC[C@H]1OC(=O)N2c3cc(F)c(N4CCSCC4)cc3OC[C@H]12 [Compound 28, N-(((3R,3aR)-8-Fluoro-1-oxo-7-thiomorpholino-3a,4-dihydro-1H,3H-benzo[b]oxazolo[3,4-d][1,4]oxazin-3-yl)methyl)acetamide]	0.047 µg/mL (≈ 0.123 µM)	3.02 µg/mL (≈ 7.91 µM)
CO[C@H]1/C=C/O[C@@]2(C)Oc3c(C)c(O)c4c(O)c(c(/C=N/N5CCN(C)CC5)c(O)c4c3C2=O)NC(=O)/C(C)=C\C=C\[C@H](C)[C@H](O)[C@@H](C)[C@@H](O)[C@@H](C)[C@H](OC(C)=O)[C@@H]1C [rifampicin]	22.4 µg/mL (≈ 27.2 µM)	0.073 µg/mL (≈ 0.0887 µM)
CC(=O)NC[C@@H]1OC(=O)N2c3cc(F)c(N4CCSCC4)cc3OC[C@@H]12 [Compound 4, N-(((3S,3aS)-8-Fluoro-1-oxo-7-thiomorpholino-3a,4-dihydro-1H,3H-benzo[b]oxazolo[3,4-d][1,4]oxazin-3-yl)methyl)acetamide]	< 0.016 µg/mL	0.246 µg/mL (≈ 0.645 µM)
CC(=O)NC[C@@H]1OC(=O)N2c3ccc(N4CCOCC4)cc3OC[C@@H]12 [Compound VII, reference compound]	0.119 µg/mL (≈ 0.343 µM)	21.6 µg/mL (≈ 62.2 µM)
CC(=O)NC[C@H]1CN(c2ccc(N3CCOCC3)c(F)c2)C(=O)O1 [Linezolid, reference compound]	0.138 µg/mL (≈ 0.409 µM)	4 µg/mL (≈ 11.9 µM)
NNC(=O)c1ccncc1 [isoniazid]	> 40 µg/mL	0.032 µg/mL (≈ 0.233 µM)
